Experimental data published in ChEMBL document CHEMBL1132622, “Synthesis, structure-activity relationships, and in vivo evaluations of substituted di-tert-butylphenols as a novel class of potent, selective, and orally active cyclooxygenase-2 inhibitors. 2. 1,3,4- and 1,2,4-thiadiazole series” (J Med Chem, 1999).
pIC50: −log10 of the molar value.

What was measured:
[1] = biological target: T1, Prostaglandin G/H synthase 1 (Ovis aries) (UniProt P05979); assay: IC50 value against ovine Prostaglandin G/H synthase 1 at 10 uM
T1 sequence (whole entry): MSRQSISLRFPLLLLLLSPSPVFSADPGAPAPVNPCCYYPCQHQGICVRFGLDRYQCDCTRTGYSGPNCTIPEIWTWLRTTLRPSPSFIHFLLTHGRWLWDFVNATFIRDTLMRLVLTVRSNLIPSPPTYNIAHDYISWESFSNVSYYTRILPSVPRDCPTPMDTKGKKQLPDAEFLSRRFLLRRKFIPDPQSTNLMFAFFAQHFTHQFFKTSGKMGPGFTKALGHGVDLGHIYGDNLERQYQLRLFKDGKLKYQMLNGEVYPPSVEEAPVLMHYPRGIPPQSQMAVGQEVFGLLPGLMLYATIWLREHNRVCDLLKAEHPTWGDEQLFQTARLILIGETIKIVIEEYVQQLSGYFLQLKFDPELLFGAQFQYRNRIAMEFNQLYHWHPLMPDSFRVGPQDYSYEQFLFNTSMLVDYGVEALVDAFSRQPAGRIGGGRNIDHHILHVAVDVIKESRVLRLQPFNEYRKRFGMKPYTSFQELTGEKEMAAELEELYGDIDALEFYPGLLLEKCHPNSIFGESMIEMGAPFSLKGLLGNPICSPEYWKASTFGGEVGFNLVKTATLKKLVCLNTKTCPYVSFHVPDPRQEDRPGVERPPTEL

[2] = biological target: T2, Prostaglandin G/H synthase 2 (Homo sapiens) (UniProt P35354); assay: IC50 value against recombinant human Prostaglandin G/H synthase 2 at 10 uM
T2 sequence (whole entry): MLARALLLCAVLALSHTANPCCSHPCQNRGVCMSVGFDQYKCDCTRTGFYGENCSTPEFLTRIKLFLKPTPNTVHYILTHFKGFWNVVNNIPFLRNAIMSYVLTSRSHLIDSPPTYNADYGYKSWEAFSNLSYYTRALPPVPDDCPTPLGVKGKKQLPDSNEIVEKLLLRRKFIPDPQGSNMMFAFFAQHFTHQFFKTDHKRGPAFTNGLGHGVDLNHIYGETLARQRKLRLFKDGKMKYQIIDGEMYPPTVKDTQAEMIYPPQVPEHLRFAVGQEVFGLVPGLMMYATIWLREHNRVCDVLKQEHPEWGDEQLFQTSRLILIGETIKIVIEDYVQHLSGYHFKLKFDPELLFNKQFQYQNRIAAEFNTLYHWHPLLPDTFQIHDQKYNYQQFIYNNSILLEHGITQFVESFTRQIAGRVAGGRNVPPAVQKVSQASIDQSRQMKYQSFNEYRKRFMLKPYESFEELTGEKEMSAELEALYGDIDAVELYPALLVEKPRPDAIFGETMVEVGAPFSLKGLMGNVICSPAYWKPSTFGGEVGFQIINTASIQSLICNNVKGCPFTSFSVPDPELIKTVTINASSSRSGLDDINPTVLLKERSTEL

[3] = biological target: Prostaglandin G/H synthase 1 (Homo sapiens, UniProt P23219); assay: IC50 value against Prostaglandin G/H synthase 1 of human platelet rich plasma; type: cell-free
[4] = biological target: T3, Prostaglandin G/H synthase 2 (Mus musculus, UniProt Q05769)
T3 sequence (Q05769 whole entry): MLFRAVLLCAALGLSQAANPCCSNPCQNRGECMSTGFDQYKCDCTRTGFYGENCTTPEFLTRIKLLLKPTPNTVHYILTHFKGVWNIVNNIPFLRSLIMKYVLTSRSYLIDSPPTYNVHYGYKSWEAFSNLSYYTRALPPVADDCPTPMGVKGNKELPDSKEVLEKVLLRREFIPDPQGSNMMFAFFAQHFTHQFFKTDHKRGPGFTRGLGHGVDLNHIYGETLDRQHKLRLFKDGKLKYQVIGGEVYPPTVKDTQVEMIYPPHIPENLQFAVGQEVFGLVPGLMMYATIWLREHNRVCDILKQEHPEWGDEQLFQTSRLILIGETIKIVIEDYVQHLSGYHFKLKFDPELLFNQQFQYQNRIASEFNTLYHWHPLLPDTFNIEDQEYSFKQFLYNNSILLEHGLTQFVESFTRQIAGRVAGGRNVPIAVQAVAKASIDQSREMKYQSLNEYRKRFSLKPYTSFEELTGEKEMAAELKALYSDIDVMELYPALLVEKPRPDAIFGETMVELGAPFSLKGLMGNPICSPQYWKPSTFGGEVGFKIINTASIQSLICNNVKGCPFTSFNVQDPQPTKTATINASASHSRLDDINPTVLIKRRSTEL

[5] = biological target: T4, Prostaglandin G/H synthase 2 (Homo sapiens, UniProt P35354); assay: Inhibition of recombinant human prostaglandin G/H synthase 2 (COX-2)
T4 sequence (P35354 whole entry): T2 sequence (whole entry)

Rattus norvegicus [6] = organism: Rattus norvegicus; assay: Lesion frequency was measured in rats.; type: functional
Rattus norvegicus [7] = organism: Rattus norvegicus; assay: ED50 was measured by CFE assay method.; type: functional
[8] = biological target: T5, Prostaglandin G/H synthase 1 (Ovis aries, UniProt P05979); assay: IC50 value against ovine Prostaglandin G/H synthase 1
T5 sequence (P05979 whole entry): T1 sequence (whole entry)

Rattus norvegicus [9] = organism: Rattus norvegicus; assay: ED50 was measured by hyperalgesia assay method.; type: functional
Rattus norvegicus [10] = organism: Rattus norvegicus; assay: Percentage inhibition of the prostaglandin synthesis was measured in rats.; type: functional
[11] = biological target: T3, Prostaglandin G/H synthase 2; assay: IC50 value against Prostaglandin G/H synthase 2 of murine J774A.1 cell line
Rattus norvegicus [12] = organism: Rattus norvegicus; assay: Percentage of gastric damage was measured in rats.; type: functional, Stomach
[13] = biological target: T1, Prostaglandin G/H synthase 1 (Ovis aries); assay: IC50 value against ovine Prostaglandin G/H synthase 1 at 30 uM

Sequence of Prostaglandin G/H synthase 1 (Homo sapiens, UniProt P23219) (P23219 whole entry): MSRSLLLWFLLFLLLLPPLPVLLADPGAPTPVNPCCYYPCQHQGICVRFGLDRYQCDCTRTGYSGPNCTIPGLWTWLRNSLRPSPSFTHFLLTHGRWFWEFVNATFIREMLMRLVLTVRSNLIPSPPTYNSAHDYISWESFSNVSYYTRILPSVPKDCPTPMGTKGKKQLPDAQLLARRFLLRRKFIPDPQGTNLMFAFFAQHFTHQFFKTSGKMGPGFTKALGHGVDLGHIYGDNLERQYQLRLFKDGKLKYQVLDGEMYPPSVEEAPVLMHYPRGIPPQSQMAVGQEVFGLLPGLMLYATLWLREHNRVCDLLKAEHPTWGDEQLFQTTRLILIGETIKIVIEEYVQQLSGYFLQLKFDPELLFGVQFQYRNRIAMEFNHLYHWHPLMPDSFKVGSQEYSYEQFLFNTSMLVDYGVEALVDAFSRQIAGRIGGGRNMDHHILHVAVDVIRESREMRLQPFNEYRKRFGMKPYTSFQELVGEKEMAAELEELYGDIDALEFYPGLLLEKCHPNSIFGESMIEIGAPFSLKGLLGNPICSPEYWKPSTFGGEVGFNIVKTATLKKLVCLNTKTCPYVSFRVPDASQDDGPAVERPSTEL

Row | inhibition [1] | inhibition [2] | pIC50 [3] | pIC50 [4] | pIC50 [5] | pIC50 [8] | IC50 [11] | inhibition [13] | SMILES | Lesion frequency (Rattus norvegicus [6]) | ED50 (Rattus norvegicus [7]) | ED50 (Rattus norvegicus [9]) | Inhibition (Rattus norvegicus [10]) | Damaged area (Rattus norvegicus [12])
1 | 16% | 20% | 5.44 | 6.59 |  |  |  |  | CSc1nc(-c2cc(C(C)(C)C)c(O)c(C(C)(C)C)c2)ns1 |  |  |  |  | 
2 | 25% | 14% |  | < 4.70 |  |  |  |  | CSc1nnc(-c2cc(C(C)C)c(O)c(C(C)C)c2)s1 |  |  |  |  | 
3 |  |  | 5.44 |  | < 4.70 | < 4.70 | Not Active |  | CC(C)(C)c1cc(-c2nnc(NC#N)s2)cc(C(C)(C)C)c1O | 12.5% | 7.7 mg/kg | 1.3 mg/kg | 22% | 0.02%
4 |  |  | 6.28 | 6.96 | 5.46 |  |  | 34% | CC(C)(C)c1cc(-c2nnc(N)s2)cc(C(C)(C)C)c1O |  |  |  |  | 
5 |  |  | 5.92 | 7.59 | 7.33 | 4.49 |  |  | CC(C)(C)c1cc(-c2nsc(NC#N)n2)cc(C(C)(C)C)c1O | 87.5% | 5.8 mg/kg | 0.2 mg/kg | 87.7% | 4.91%
6 |  |  | 5.55 | 6.48 | 4.64 |  |  | 16% | CC(C)(C)c1cc(-c2nnc(N=C(N)N)o2)cc(C(C)(C)C)c1O |  |  |  |  | 
7 |  |  |  |  |  |  |  |  | CS(=O)(=O)Nc1ccc([N+](=O)[O-])cc1OC1CCCCC1 [NS-398] | 0% | 0.61 mg/kg | 7.4 mg/kg | 30.7% | 0%

Row | SMILES | inhibition [1] | inhibition [2] | pIC50 [3] | pIC50 [4] | pIC50 [5] | pIC50 [8] | IC50 [11] | inhibition [13] | Lesion frequency (Rattus norvegicus [6]) | ED50 (Rattus norvegicus [7]) | ED50 (Rattus norvegicus [9]) | Inhibition (Rattus norvegicus [10]) | Damaged area (Rattus norvegicus [12])
8 | CCSc1nnc(-c2nc(C(C)(C)C)c(O)c(C(C)(C)C)n2)s1 | 39% |  | 6.17 | 7.74 | 5.70 |  |  |  |  |  |  |  | 
